# From patent publication US20160007541A1, “Increasing Harvest (Yield) of Crop Plants Utilizing Thermodynamic Laws on a Whole Plant Basis to Detect Optimal Periods for Exothermic Energy Versus Endothermic Energy Needs” (Stoller Enterprises, Inc., priority 2014, published 2016)
# System: tomato plants
# Experiment: Tomato yield, Brix and taste after cobalt via drip irrigation (Table 4)
# Format: in vivo
# Details: base fertility plus cobalt @ 1 pt/acre over 5 weeks
smiles,measurement,setting,value
[Co] [cobalt],Taste test 14 scientific personnel,base 2,2.8
same,% Brix (sugars),base 4.8,5.5%
same,Yield (No. of tons per acre),base 29.6,33.9 tons per acre
same,"Yield (number of tomato fruits per acre × 1,000)",base 244,"288 fruits per acre × 1,000"
